Assay results as given in paper PMC12606464, “Investigating NFE2L1 activators for targeted protein aggregate clearance: a follow-up study” (RSC Medicinal Chemistry, 2025).

Key:
[1] = test system: HEK293 cells; assay: alamarBlue cytotoxicity assessment in HEK293 cells; format: cell-based, human; conditions: for Mean 1 (viability; 0 µM = 100): Fig. S2, n = 3; for Tox [% of ctrl.]: HEK293, alamarBlue, 16 h, concentration not given
Method in brief: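 HEK293 cells exposed 16 h to compound at 1.25, 2.5, 5, 7.5 and 10 µM, with DMSO as vehicle control. Viability read by alamarBlue; means ± SD of three independent experiments.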

[2] = test system: SH-SY5Y cells; assay: Rotenone-induced α-synuclein proteotoxicity in SH-SY5Y cells; format: cell-based, human; conditions: SH-SY5Y expressing α-synuclein-GFP; pre-treatment 4 h (0.312-2.5 μM), rotenone 1.125 μM 24 h; approximately 30% without compounds
Description: Fig. 3 (A) HEK293 cells were treated with RUN compounds at a concentration of 7.5 μM for 16 hours. DMSO was used as a vehicle control. Proteasome chymotrypsin-like activity was measured in cell lysates at 37 °C. Data came from three biological replicates (n = 3). Statistical analysis was done using ratio paired t-tests corrected for multiple comparisons with Holm–Šídák's method (α = 0.05). *p < 0.05. Detailed results of the analysis are shown in SI Table S7. (B) RUN-89 protects against polyQ-mediated toxicity in an NFE2L1-dependent manner. HCT116 parental cells (WT) and two independent DDI2 knockout clones (KO 04 and KO 11), in which NFE2L1 activation is impaired, were transiently transfected with plasmids encoding non-aggregating EGFP-HttQ23 or aggregation-prone EGFP-HttQ74. Cells were treated with 1 or 3 μM RUN-89 for 48 hours, and viability was measured using the alamarBlue assay. […] Data are shown as the Geomean ± GeoSD from four independent biological replicates (n = 4). […] (C left) The protective effect of RUN compounds was assessed by rotenone-induced α-synuclein proteotoxicity in SH-SY5Y cells, which mimics the PD-like phenotype. […]
A second stress assay was performed using rotenone, a mitochondrial complex I inhibitor. […] After 4 hours, rotenone (1.125 μM) was added and one day later the viability of the cells was measured. […]

Structure (SMILES) | Mean 1 (viability; 0 µM = 100) ([1]; 5 uM) | Mean 1 (viability; 0 µM = 100) ([1]; 10 uM) | Mean 1 (viability; 0 µM = 100) ([1]; 1,125 uM) | Mean 1 (viability; 0 µM = 100) ([1]; 2,5 uM) | Mean 1 (viability; 0 µM = 100) ([1]; 7,5 uM) | Tox [% of ctrl.] [1] | Cell viability after rotenone treatment [2]
COc1ccc(/C=C2\CC(N)C/C(=C\c3ccc(OC)c(OC)c3)C2=O)cc1OC (stereo not shown) [RUN-81] | 80.55 | 79.08 | 98.04 | 92.22 | 79.02 | 84% of ctrl. | 
COc1ccc(/C=C2\CC(NC(=O)C3CCCC3)C/C(=C\c3ccc(OC)c(OC)c3)C2=O)cc1OC (stereo not shown) [RUN-89] | 76.01 | 68.72 | 100.7 | 91.49 | 71.31 | 81% of ctrl. | up to 70%
COc1ccc(/C=C2\CC(NC(=O)c3ccccn3)C/C(=C\c3ccc(OC)c(OC)c3)C2=O)cc1OC (stereo not shown) [RUN-94] | 86.01 | 74.87 | 105.6 | 101.6 | 75.79 | 78% of ctrl. | 
